According to patent US10618937B2, “Method of treating Alzheimer's disease” (INDUSTRY-ACADEMIC COOPERATION FOUNDATION GYEONGSANG …, priority 2016, dated 2020):

Key:
APP/PS1 model mice = assay: Morris water maze test in APP/PS1 model mice; type: in vivo; settings: APP/PS1 model mice treated, compared to APP/PS1 model mice
Experimental: Male C57BL/6J wild type mice and double transgenic B6.Cg-Tg (APPswe, PSENdE9) 85Dbo Mmjax (APP/PS1) AD-model mice were obtained from Jackson Laboratories (Bar Harbor, Me., USA). The brains of the double transfected mice express Swedish mutation-containing chimeric mouse-human amyloid precursor protein (Mo/HuAPP695swe) and mutant human presenilin 1 protein (PS1-dE9). The mice were fed with an unlimited supply of food and water at an animal breeding ground of a university at a temperature of 23° C., at the relative humidity of 60±10% and in the black and light cycle of 12 h/12 h. […]
The Morris Underwater Maze Test System was constructed as a circular water tank with a diameter of 100 cm and a height of 40 cm containing 15.5 cm depth of water (temperature of 23±1° C.) which was opaque with white ink added. […] The delay time for escaping from the water maze (the time to find the hidden escape platform) was calculated for each trial. […] For the probe experiment, the platform was removed, each mouse was allowed to freely swim for 60 seconds, the amount of time the mouse spent in the target quadrant was measured, and the number of platform positions the mouse passed by (where the platform was located during the hidden platform training). […] All data were recorded by using video-tracking software (SMART, Panlab Harward Apparatus, Bioscience Company, Holliston, Mass., USA).

[1] = test system: primary hippocampus neurons; assay: In vitro electrophysiological analysis (AMPAR-mediated mEPSCs); type: cell-based, Sprague-Dawley rats; settings: compared to the Aβ group, various concentrations
Experimental: Primary hippocampus neurons isolated from E19 Sprague-Dawley rats were cultured to a density of 150 cells/mm^2. AMPA receptor (AMPAR)-mediated miniature excitatory postsynaptic currents (mEPSCs) were recorded by using conventional whole-cell techniques. When primary hippocampus neurons were filled with an internal solution, the electrode resistance was varied from 3 MΩ to 5 MΩ.
The inventors of the present specification performed current measurements by using an Axopatch 200A patch-clamp amplifier (Molecular Devices, Sunnyvale, Calif.).
The voltage of the membrane and the voltage of current, commands, and digitization were adjusted by using Digidata 1322A connected to Clampex 9.2 (Molecular Devices, Sunnyvale, Calif.) of the pClamp software package on an IBM-compatible computer. The inventors of the present specification analyzed data by using Clampfit (Molecular Devices, Sunnyvale, Calif.) and Prism 4.0 (GraphPad, San Diego, Calif.). The current was low-pass filtered at 2 kHz by using an amplifiers four-pole Bessel filter. […]
The cumulative probability curve of mEPSCs was calculated by using Clampfit 9.0 software and Prism 4.0 (GraphPad, San Diego, Calif.). […]

RGPCG (adiponectin receptor-activating peptide) [5AA1]
time for staying where the platform was located (probe test) (APP/PS1 model mice): increased
mEPSC frequency [1]: statistically significantly increased
